In ChEMBL document CHEMBL3232821, “1,2-benzisothiazol-3-one derivatives as a novel class of small-molecule caspase-3 inhibitors” (Bioorg Med Chem, 2014) one finds Activity, IC50 and solubility data, which are given here for four molecules.

Molecules are shown by their SMILES. Calls of active or inactive are those of the source. No cut-off for these calls is given here.

One data set concerns Jurkat. Description: Antiapoptotic activity in human Jurkat T cells assessed as protection against camptothecin-induced apoptosis at 50 uM treated 2 hrs before camptothecin addition measured after 4 hrs using annexin V-FITC and 7-AAD staining by flow cytometry. Type of data set: functional, cell-based. Background: A flow cytometer gives signals particle by particle.
In a further data set the target is T1, Caspase-7 (Homo sapiens, UniProt P55210).
T1 sequence (P55210 whole entry): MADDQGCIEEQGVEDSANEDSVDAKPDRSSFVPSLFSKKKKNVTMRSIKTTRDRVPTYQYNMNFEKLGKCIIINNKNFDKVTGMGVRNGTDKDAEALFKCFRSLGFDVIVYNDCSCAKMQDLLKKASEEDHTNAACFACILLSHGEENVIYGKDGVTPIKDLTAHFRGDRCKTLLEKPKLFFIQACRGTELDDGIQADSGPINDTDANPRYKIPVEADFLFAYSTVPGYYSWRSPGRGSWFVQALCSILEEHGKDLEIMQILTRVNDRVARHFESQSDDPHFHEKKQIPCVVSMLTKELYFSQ
As to the kind of experiment: Inhibition of human recombinant caspase-7 using Ac-DEVD-AMC as substrate after 10 mins by fluorescence assay.

The nature of data set [1]: Solubility of the compound in water. The class given is physicochemical. Conditions: buffer.
For a further data set, the target named is T2, Caspase-3 (Homo sapiens, UniProt P42574).
T2 sequence (P42574 whole entry): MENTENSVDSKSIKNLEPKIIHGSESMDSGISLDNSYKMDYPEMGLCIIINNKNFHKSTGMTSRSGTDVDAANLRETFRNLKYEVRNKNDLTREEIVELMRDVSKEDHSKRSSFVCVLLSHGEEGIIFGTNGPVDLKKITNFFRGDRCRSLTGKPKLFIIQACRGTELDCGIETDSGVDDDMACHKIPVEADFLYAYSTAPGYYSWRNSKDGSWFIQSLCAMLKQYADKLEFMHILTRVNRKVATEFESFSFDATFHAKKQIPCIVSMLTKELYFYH
Description: Inhibition of human recombinant caspase-3 using […] as substrate after 10 mins by fluorescence assay.

The term IC50 denotes the concentration that inhibits the measured activity by half. Take `O=C(NCc1ccc(N2CCOCC2)cc1)n1sc2ccccc2c1=O`: the result with Jurkat was Active. The IC50 at Caspase-7 stood at 248 µM. Moreover, the solubility entry in data set [1] is “soluble”.

As to `O=c1[nH]sc2ccccc12`, on Caspase-7, the IC50 worked out at 137 µM.

For `O=C(Nc1ccc(N2CCOCC2)cc1)n1sc2ccccc2c1=O`, the IC50 at Caspase-7 worked out at 0.909 µM; on Caspase-3, 0.00115 µM. In data set [1], the solubility entry is recorded as “Insoluble”.

Take `O=C(Cn1sc2ccccc2c1=O)Nc1ccc(N2CCOCC2)cc1`: the IC50 at Caspase-7 was determined as 100 µM.
